Test system: IL-6 in THP-1 monocytes
Test: Anti-inflammation efficacy in THP-1 in vitro assay: IL-6 in supernatant by ELISA after LPS stimulation
Type: cell-based
Conditions: LPS 1 μg/mL, 24 hours, PMA-differentiated THP-1
Method: The following procedure was used to test the anti-inflammation efficacy of the various actives alone or in combination. • (i) 5×10^5 THP-1 monocytes were placed into 24-well plates, with 100 nM PMA in the culture media to differentiate the cell. • (ii) After 72 hours differentiation, treatments as follows were supplemented into fresh media and applied to the cells: • Example 1: Vehicle control with LPS (1 μg/mL) stimulation • Example 2,3: DHA at 100 or 20 μM alone with LPS (1 μg/mL) stimulation. • Example 4,5: Niacinamide at 10000 or 5000 μM alone with LPS (1 μg/mL) stimulation. • Example 6,7: Combinations of 100 μM DHA and either 10000 or 5000 μM of niacinamide. • Example 8: Combination of 20 μM DHA and 10000 μM of niacinamide. • (iii) After 24 hours incubation, the supernatants were collected. • (iv) Then IL-6 concentration was quantified in the supernatant by BD Elisa kit. • (v) IL-6 inhibition rate was calculated in comparison with vehicle control with LPS stimulation as a reference for each treatment.
The lower the percentage, the higher the anti-inflammatory potential. The CI value (combination index) of the various combinations is also less than 1 indicating synergism.
The data below is expressed in % IL-6 inhibition rate in Table-2 below. • (i) 5×10^5 THP-1 monocytes were placed into 24-well plates, with 100 nM PMA in the culture media to differentiate the cell. • (ii) After 72 hours differentiation, treatments as follows were supplemented into fresh media and applied to the cells: • Example 9: Vehicle control with LPS (1 μg/mL) stimulation • Example 10,11,12: DHA at 100, 50 or 25 μM alone with LPS (1 μg/mL) stimulation. • Example 13,14,15: Niacinamide at 5000, 2500 or 1250 μM alone with LPS (1 μg/mL) stimulation. • Example 16: Combinations of 100 μM DHA and 5000 μM of niacinamide. • Example 17: Combination of 50 μM DHA and 2500 μM of niacinamide. • Example 18: Combination of 25 μM DHA and 1250 μM of niacinamide. • (iii) After 24 hours incubation, the supernatants were collected. • (iv) Then IL-6 concentration was tested in the supernatant by BD Elisa Kit. • (v) IL-6 inhibition rate was calculated in comparison with vehicle control with LPS stimulation as reference, for each treatment.
Experiments were carried out at various concentrations of DHA and niacinamide at mole ratios outside the invention i.e., at 1:12.5. The data below is expressed in % IL-6 inhibition rate in Table-3 below: • (i) 5×10^5 THP-1 monocytes were placed into 24-well plates, with 100nM PMA in the culture media to differentiate the cell. • (ii) After 72 hours differentiation, treatments as follows were supplemented into fresh media and applied to the cells: • Example 20: Vehicle control with LPS (1 μg/mL) stimulation • Example 21,22,23: DHA at 100, 50 or 25 μM alone with LPS (1 μg/mL) stimulation. • Example 24,25,26: Niacinamide at […] alone with LPS (1 μg/mL) stimulation. • Example 27: Combinations of 100 μM DHA and 1250 μM of niacinamide. • Example 28: Combination of 50 μM DHA and 625 μM of niacinamide. • Example 29: Combination of 25 μM DHA and […] of niacinamide. • (iii) After 24 hours incubation the supernatants were collected. • (iv) Then IL-6 concentration was tested in the supernatant by BD Elisa Kit. • (v) IL-6 inhibition rate was calculated in comparison with vehicle control with LPS stimulation as reference, for each treatment.

Structure (SMILES) | % of LPS (concentration of IL-6 as a % of that obtained for LPS) (20 μM of DHA alone) | % of LPS (concentration of IL-6 as a % of that obtained for LPS) (25 μM of DHA alone) | % of LPS (concentration of IL-6 as a % of that obtained for LPS) (50 μM of DHA alone) | % of LPS (concentration of IL-6 as a % of that obtained for LPS) (100 μM of DHA alone) | % of LPS (concentration of IL-6 as a % of that obtained for LPS) (100 μM of DHA alone, listed as 10) | % of LPS (concentration of IL-6 as a % of that obtained for LPS) (100 μM of DHA alone, listed as 21) | % of LPS (concentration of IL-6 as a % of that obtained for LPS) (317.5 μM of niacinamide alone) | % of LPS (concentration of IL-6 as a % of that obtained for LPS) (625 μM of niacinamide alone) | % of LPS (concentration of IL-6 as a % of that obtained for LPS) (1250 μM of niacinamide alone, listed as 15) | % of LPS (concentration of IL-6 as a % of that obtained for LPS) (1250 μM of niacinamide alone, listed as 24) | % of LPS (concentration of IL-6 as a % of that obtained for LPS) (2500 μM of niacinamide alone) | % of LPS (concentration of IL-6 as a % of that obtained for LPS) (5000 μM of niacinamide alone, listed as 5) | % of LPS (concentration of IL-6 as a % of that obtained for LPS) (5000 μM of niacinamide alone, listed as 13) | % of LPS (concentration of IL-6 as a % of that obtained for LPS) (10000 μM of niacinamide alone)
CC/C=C\C/C=C\C/C=C\C/C=C\C/C=C\C/C=C\CCC(=O)O [Example 2, docosahexaenoic acid] | 58.5% | 65.5% | 38.7% | 14.7% | 8.3% | 8.3% | – | – | – | – | – | – | – | –
NC(=O)c1cccnc1 [Example 4, niacinamide] | – | – | – | – | – | – | 84.2% | 77.6% | 64.5% | 35.4% | 50.8% | 33.4% | 26.5% | 5.7%

Reference: patent US20200206173A1, “A PERSONAL CARE COMPOSITION” (Conopco, Inc., d/b/a UNILEVER, priority 2017, published 2020)
